Experimental data reported in PubChem BioAssay (NCI).
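Growth conditions: 96-well plates. Treatment: test compound, 48 hours, 5 concentrations. Analysis: linear interpolation between bracketing concentrations; unreached endpoints set to highest concentration. Abbreviation: GI50, concentration required for 50% inhibition of growth. TGI is the concentration that stops growth completely.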

Key:
Assay in all cases: NCI anticancer screen, dose series, 48 h
[1] = system: 786-0 renal
[2] = system: A498 renal
[3] = system: A549 NSCLC
[4] = system: ACHN renal
[5] = system: BT-549 breast
[6] = system: CAKI-1 renal
[7] = system: CCRF-CEM leukemia
[8] = system: COLO 205 colon
[9] = system: DU-145 prostate
[10] = system: EKVX NSCLC
[11] = system: HCC-2998 colon
[12] = system: HCT-116 colon
[13] = system: HCT-15 colon
[14] = system: HL-60(TB) leukemia
[15] = system: HOP-62 NSCLC
[16] = system: HOP-92 NSCLC
[17] = system: HS 578T breast
[18] = system: HT29 colon
[19] = system: IGROV1 ovarian
[20] = system: K-562 leukemia
[21] = system: KM12 colon
[22] = system: LOX IMVI melanoma
[23] = system: M14 melanoma
[24] = system: MALME-3M melanoma
[25] = system: MCF7 breast
[26] = system: MDA-MB-231 breast
[27] = system: MDA-MB-435
[28] = system: MOLT-4 leukemia
[29] = system: NCI-H226 lung

`c1cc[n+](C2c3ccccc3C([n+]3ccccc3)c3ccccc32)cc1` (stereo not drawn) was tested, and the GI50 [1] was 15.9 µM, the TGI [1] was greater than 100 µM and the GI50 [2] was 15.8 µM. The TGI [2] was 73.7 µM, the GI50 [3] was 26.6 µM and the TGI [3] was greater than 100 µM. It also gave a GI50 [4] greater than 100 µM, a TGI [4] greater than 100 µM and a GI50 [5] of 3.64 µM. The TGI [5] was 14.6 µM, the GI50 [6] was greater than 100 µM and the TGI [6] was greater than 100 µM. It also gave a GI50 [7] of 10.7 µM, a TGI [7] greater than 100 µM and a GI50 [8] of 4.24 µM. For the same molecule, the TGI [8] was 22.2 µM, the GI50 [9] was 14.2 µM and the TGI [9] was 43.8 µM. The GI50 [10] was 3.39 µM, the TGI [10] was greater than 100 µM and the GI50 [11] was 10.3 µM. For the same molecule, the TGI [11] was 31.8 µM, the GI50 [12] was 10.7 µM and the TGI [12] was greater than 100 µM. It also gave a GI50 [13] greater than 100 µM, a TGI [13] greater than 100 µM and a GI50 [14] of 22.6 µM. It also gave a TGI [14] greater than 100 µM, a GI50 [15] of 5.77 µM and a TGI [15] of 71.1 µM. It also gave a GI50 [16] of 4.45 µM, a TGI [16] of 50.9 µM and a GI50 [17] of 4.4 µM. The TGI [17] was 27 µM, the GI50 [18] was 12.6 µM and the TGI [18] was greater than 75.5 µM. The GI50 [19] was 1.96 µM, the TGI [19] was greater than 82.8 µM and the GI50 [20] was 12 µM. The TGI [20] was greater than 100 µM, the GI50 [21] was 6.43 µM and the TGI [21] was 50.1 µM. For the same molecule, the GI50 [22] was 15.8 µM, the TGI [22] was greater than 100 µM and the GI50 [23] was 41 µM. For the same molecule, the TGI [23] was greater than 100 µM, the GI50 [24] was 3.9 µM and the TGI [24] was 18.6 µM. It also gave a GI50 [25] of 11.9 µM, a TGI [25] greater than 100 µM and a GI50 [26] of 21.6 µM. It also gave a TGI [26] greater than 100 µM, a GI50 [27] of 5.89 µM and a TGI [27] of 23 µM. For the same molecule, the GI50 [28] was 25.8 µM, the TGI [28] was greater than 100 µM and the GI50 [29] was 17.9 µM. For the same molecule, the TGI [29] was greater than 100 µM.
